Results reported in ChEMBL document CHEMBL3992518, “Peptide Macrocycle Inhibitor of Coagulation Factor XII with Subnanomolar Affinity and High Target Selectivity” (J Med Chem, 2017).
*1 amine or outer side, *2 acyl side, *3 side chain or, on linkers, in order; H or OH if unused. Where a SMILES comes first, the peptide text is derived from it. Bridges are numbered along the chain shown (N, C = ends). [ ]: non-standard residue; d: D form. TATA = O=C(CC[*:1])N1CN(C(=O)CC[*:2])CN(C(=O)CC[*:3])C1; hArg = N=C(N)NCCCC[C@H](N)C(=O)O; hLeu = CC(C)CC[C@H](N)C(=O)O

Target: T1, Coagulation factor XII (Homo sapiens, UniProt P00748)
T1 sequence (P00748 whole entry): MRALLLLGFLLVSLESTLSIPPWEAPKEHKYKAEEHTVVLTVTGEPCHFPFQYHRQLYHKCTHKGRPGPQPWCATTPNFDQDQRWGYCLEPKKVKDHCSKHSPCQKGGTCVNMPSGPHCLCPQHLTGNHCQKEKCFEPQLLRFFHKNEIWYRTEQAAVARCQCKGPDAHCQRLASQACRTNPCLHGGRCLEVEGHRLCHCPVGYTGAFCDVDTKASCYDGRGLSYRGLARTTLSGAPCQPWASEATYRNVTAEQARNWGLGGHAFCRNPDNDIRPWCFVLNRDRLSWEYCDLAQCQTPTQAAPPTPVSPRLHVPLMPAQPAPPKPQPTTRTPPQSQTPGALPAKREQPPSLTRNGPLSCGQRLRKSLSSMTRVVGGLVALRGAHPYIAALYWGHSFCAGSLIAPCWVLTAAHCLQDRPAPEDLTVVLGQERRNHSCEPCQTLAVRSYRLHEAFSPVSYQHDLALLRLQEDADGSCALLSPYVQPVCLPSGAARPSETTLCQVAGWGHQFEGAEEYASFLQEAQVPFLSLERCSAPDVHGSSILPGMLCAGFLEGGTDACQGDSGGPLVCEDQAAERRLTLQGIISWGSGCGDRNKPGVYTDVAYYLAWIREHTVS
Assay: Inhibition of human beta factor 12a using fluorogenic substrate Boc-Gln-Gly-Arg-AMC preincubated for 10 mins followed by addition of substrate measured every min for 30 mins

Structure (SMILES) | Ki [nM]
CC(C)C[C@@H]1NC(=O)[C@H](CCC(N)=O)NC(=O)[C@H](CCCNC(=N)N)NC(=O)[C@@H]2CSCCC(=O)N3CN(CN(C3)C(=O)CCSC[C@H](NC(=O)[C@@H](N)CCCNC(=N)N)C(=O)N[C@@H](C)C(=O)N[C@@H](CCCNC(=N)N)C(=O)N[C@@H](CC(C)C)C(=O)N3CCC[C@H]3C(=O)N2)C(=O)CCSC[C@@H](C(=O)N[C@@H](CCCNC(=N)N)C(=O)N[C@@H](Cc2c[nH]c3ccccc23)C(=O)O)NC(=O)[C@H](CCCNC(=N)N)NC1=O (H-RCARLPCRQLRCRW-OH; linker 2-7-12 via TATA) | 132
CC(C)C[C@@H]1NC(=O)[C@H](CCC(N)=O)NC(=O)[C@H](CCCNC(=N)N)NC(=O)[C@@H]2CSCCC(=O)N3CN(CN(C3)C(=O)CCSC[C@H](NC(=O)[C@@H](N)CCCNC(=N)N)C(=O)N[C@@H](Cc3ccccc3)C(=O)N[C@@H](CCCCNC(=N)N)C(=O)N[C@@H](CC(C)C)C(=O)N3CCC[C@H]3C(=O)N2)C(=O)CCSC[C@@H](C(=O)N[C@@H](CCCNC(=N)N)C(=O)N[C@@H](Cc2c[nH]c3ccccc23)C(=O)O)NC(=O)[C@H](CCCNC(=N)N)NC1=O (H-RCF[hArg]LPCRQLRCRW-OH; linker 2-7-12 via TATA) | 71
CSCC[C@@H]1NC(=O)[C@H](CCCNC(=N)N)NC(=O)[C@H](Cc2ccccc2)NC(=O)[C@@H](NC(=O)[C@@H](N)CCCNC(=N)N)CSCCC(=O)N2CN3CN(C2)C(=O)CCSC[C@H](NC(=O)[C@@H]2CCCN2C1=O)C(=O)N[C@@H](CCCNC(=N)N)C(=O)N[C@@H](CCC(N)=O)C(=O)N[C@@H](CC(C)C)C(=O)N[C@@H](CCCNC(=N)N)C(=O)N[C@H](C(=O)N[C@@H](CCCNC(=N)N)C(=O)N[C@@H](Cc1c[nH]c2ccccc12)C(=O)O)CSCCC3=O (H-RCFRMPCRQLRCRW-OH; linker 2-7-12 via TATA) | > 3000
CC(C)C[C@@H]1NC(=O)[C@H](CCC(N)=O)NC(=O)[C@H](CCCNC(=N)N)NC(=O)[C@@H]2CSCCC(=O)N3CN(CN(C3)C(=O)CCSC[C@H](NC(=O)[C@@H](N)CCCNC(=N)N)C(=O)N[C@@H](Cc3c[nH]c4ccc(O)cc34)C(=O)N[C@@H](CCCNC(=N)N)C(=O)N[C@@H](CC(C)C)C(=O)N3CCC[C@H]3C(=O)N2)C(=O)CCSC[C@@H](C(=O)N[C@@H](CCCNC(=N)N)C(=O)N[C@@H](Cc2c[nH]c3ccccc23)C(=O)O)NC(=O)[C@H](CCCNC(=N)N)NC1=O | 94
CC(C)CC[C@@H]1NC(=O)[C@H](CCCNC(=N)N)NC(=O)[C@H](Cc2ccccc2)NC(=O)[C@@H](NC(=O)[C@@H](N)CCCNC(=N)N)CSCCC(=O)N2CN3CN(C2)C(=O)CCSC[C@H](NC(=O)[C@@H]2CCCN2C1=O)C(=O)N[C@@H](CCCNC(=N)N)C(=O)N[C@@H](CCC(N)=O)C(=O)N[C@@H](CC(C)C)C(=O)N[C@@H](CCCNC(=N)N)C(=O)N[C@H](C(=O)N[C@@H](CCCNC(=N)N)C(=O)N[C@@H](Cc1c[nH]c2ccccc12)C(=O)O)CSCCC3=O (H-RCFR[hLeu]PCRQLRCRW-OH; linker 2-7-12 via TATA) | 2700
CC(C)C[C@@H]1NC(=O)[C@H](CCC(N)=O)NC(=O)[C@H](CCCNC(=N)N)NC(=O)[C@@H]2CSCCC(=O)N3CN(CN(C3)C(=O)CCSC[C@H](NC(=O)[C@@H](N)CCCNC(=N)N)C(=O)N[C@@H](Cc3ccccc3)C(=O)N[C@@H](CCCCN)C(=O)N[C@@H](CC(C)C)C(=O)N3CCC[C@H]3C(=O)N2)C(=O)CCSC[C@@H](C(=O)N[C@@H](CCCNC(=N)N)C(=O)N[C@@H](Cc2c[nH]c3ccccc23)C(=O)O)NC(=O)[C@H](CCCNC(=N)N)NC1=O (H-RCFKLPCRQLRCRW-OH; linker 2-7-12 via TATA) | 111
CC(C)C[C@@H]1NC(=O)[C@H](CCC(N)=O)NC(=O)[C@H](CCCNC(=N)N)NC(=O)[C@@H]2CSCCC(=O)N3CN(CN(C3)C(=O)CCSC[C@H](NC(=O)[C@@H](N)CCCNC(=N)N)C(=O)N[C@@H](Cc3ccccc3)C(=O)N[C@@H](CCCNC(=N)N)C(=O)N[C@@H](CC(C)C)C(=O)N[C@@H](CO)C(=O)N2)C(=O)CCSC[C@@H](C(=O)N[C@@H](CCCNC(=N)N)C(=O)N[C@@H](Cc2c[nH]c3ccccc23)C(=O)O)NC(=O)[C@H](CCCNC(=N)N)NC1=O (H-RCFRLSCRQLRCRW-OH; linker 2-7-12 via TATA) | 29.4
CC(C)C[C@@H]1NC(=O)[C@H](CCC(N)=O)NC(=O)[C@H](CCCNC(=N)N)NC(=O)[C@@H]2CSCCC(=O)N3CN(CN(C3)C(=O)CCSC[C@H](NC(=O)[C@@H](N)CCCNC(=N)N)C(=O)N[C@@H](Cc3ccccc3)C(=O)N[C@@H](CCCNC(=N)N)C(=O)N[C@@H](C(C)C)C(=O)N3CCC[C@H]3C(=O)N2)C(=O)CCSC[C@@H](C(=O)N[C@@H](CCCNC(=N)N)C(=O)N[C@@H](Cc2c[nH]c3ccccc23)C(=O)O)NC(=O)[C@H](CCCNC(=N)N)NC1=O (H-RCFRVPCRQLRCRW-OH; linker 2-7-12 via TATA) | 570
CC(C)C[C@@H]1NC(=O)[C@H](CCC(N)=O)NC(=O)[C@H](CCCNC(=N)N)NC(=O)[C@@H]2CSCCC(=O)N3CN(CN(C3)C(=O)CCSC[C@H](NC(=O)[C@@H](N)CCCNC(=N)N)C(=O)N3CCC[C@H]3C(=O)N[C@@H](CCCNC(=N)N)C(=O)N[C@@H](CC(C)C)C(=O)N3CCC[C@H]3C(=O)N2)C(=O)CCSC[C@@H](C(=O)N[C@@H](CCCNC(=N)N)C(=O)N[C@@H](Cc2c[nH]c3ccccc23)C(=O)O)NC(=O)[C@H](CCCNC(=N)N)NC1=O | 36.9
CC(C)C[C@@H]1NC(=O)[C@H](CCC(N)=O)NC(=O)[C@H](CCCNC(=N)N)NC(=O)[C@@H]2CSCCC(=O)N3CN(CN(C3)C(=O)CCSC[C@H](NC(=O)[C@@H](N)CCCNC(=N)N)C(=O)N[C@@H](Cc3ccccc3)C(=O)N[C@@H](CCCNC(=N)N)C(=O)N[C@@H](CC(C)C)C(=O)N[C@@H](CC(=O)O)C(=O)N2)C(=O)CCSC[C@@H](C(=O)N[C@@H](CCCNC(=N)N)C(=O)N[C@@H](Cc2c[nH]c3ccccc23)C(=O)O)NC(=O)[C@H](CCCNC(=N)N)NC1=O (H-RCFRLDCRQLRCRW-OH; linker 2-7-12 via TATA) | 120
CC(C)C[C@@H]1NC(=O)[C@H](CCC(N)=O)NC(=O)[C@H](CCCNC(=N)N)NC(=O)[C@@H]2CSCCC(=O)N3CN(CN(C3)C(=O)CCSC[C@H](NC(=O)[C@@H](N)CCCNC(=N)N)C(=O)N[C@@H](Cc3ccccc3)C(=O)N[C@@H](CCCNC(=N)N)C(=O)N[C@@H](CC(C)C)C(=O)N[C@@H](CC(N)=O)C(=O)N2)C(=O)CCSC[C@@H](C(=O)N[C@@H](CCCNC(=N)N)C(=O)N[C@@H](Cc2c[nH]c3ccccc23)C(=O)O)NC(=O)[C@H](CCCNC(=N)N)NC1=O (H-RCFRLNCRQLRCRW-OH; linker 2-7-12 via TATA) | 104

Molecules with a lower Ki, results first:

Ki [nM] | Structure (SMILES)
9.3 | CC(C)C[C@@H]1NC(=O)[C@H](CCC(N)=O)NC(=O)[C@H](CCCNC(=N)N)NC(=O)[C@@H]2CSCCC(=O)N3CN(CN(C3)C(=O)CCSC[C@H](NC(=O)[C@@H](N)CCCNC(=N)N)C(=O)N[C@@H](Cc3ccccc3)C(=O)N[C@@H](CCCNC(=N)N)C(=O)N[C@@H](CC(C)C)C(=O)N3CCC[C@H]3C(=O)N2)C(=O)CCSC[C@@H](C(=O)O)NC(=O)[C@H](CCCNC(=N)N)NC1=O (H-RCFRLPCRQLRC-OH; linker 2-7-12 via TATA)
26.8 | CC(C)C[C@@H]1NC(=O)[C@H](CCC(N)=O)NC(=O)[C@H](CCCNC(=N)N)NC(=O)[C@@H]2CSCCC(=O)N3CN(CN(C3)C(=O)CCSC[C@H](NC(=O)[C@@H](N)CCCNC(=N)N)C(=O)N[C@@H](Cc3ccccc3F)C(=O)N[C@@H](CCCNC(=N)N)C(=O)N[C@@H](CC(C)C)C(=O)N3CCC[C@H]3C(=O)N2)C(=O)CCSC[C@@H](C(=O)N[C@@H](CCCNC(=N)N)C(=O)N[C@@H](Cc2c[nH]c3ccccc23)C(=O)O)NC(=O)[C@H](CCCNC(=N)N)NC1=O
6 | CC(C)C[C@@H]1NC(=O)[C@H](CCC(N)=O)NC(=O)[C@H](CCCNC(=N)N)NC(=O)[C@@H]2CSCCC(=O)N3CN(CN(C3)C(=O)CCSC[C@H](NC(=O)[C@@H](N)CCCNC(=N)N)C(=O)N[C@@H](Cc3ccc4ccccc4c3)C(=O)N[C@@H](CCCNC(=N)N)C(=O)N[C@@H](CC(C)C)C(=O)N3CCC[C@H]3C(=O)N2)C(=O)CCSC[C@@H](C(=O)N[C@@H](CCCNC(=N)N)C(=O)N[C@@H](Cc2c[nH]c3ccccc23)C(=O)O)NC(=O)[C@H](CCCNC(=N)N)NC1=O
10.2 | CC(C)C[C@@H]1NC(=O)[C@H](CCC(N)=O)NC(=O)[C@H](CCCNC(=N)N)NC(=O)[C@@H]2CSCCC(=O)N3CN(CN(C3)C(=O)CCSC[C@H](NC(=O)[C@@H](N)CCCNC(=N)N)C(=O)N[C@@H](Cc3ccccc3)C(=O)N[C@@H](CCCNC(=N)N)C(=O)N[C@@H](CC(C)C)C(=O)N3CCC[C@H]3C(=O)N2)C(=O)CCSC[C@@H](C(=O)N[C@@H](CCCNC(=N)N)C(=O)N[C@@H](Cc2c[nH]c3ccccc23)C(=O)O)NC(=O)[C@H](CCCNC(=N)N)NC1=O (H-RCFRLPCRQLRCRW-OH; linker 2-7-12 via TATA)
1.64 | CC(C)C[C@@H]1NC(=O)[C@H](CCC(N)=O)NC(=O)[C@H](CCCNC(=N)N)NC(=O)[C@@H]2CSCCC(=O)N3CN(CN(C3)C(=O)CCSC[C@H](NC(=O)[C@@H](N)CCCNC(=N)N)C(=O)N[C@@H](Cc3ccc([N+](=O)[O-])cc3)C(=O)N[C@@H](CCCNC(=N)N)C(=O)N[C@@H](CC(C)C)C(=O)N3CCC[C@H]3C(=O)N2)C(=O)CCSC[C@@H](C(=O)N[C@@H](CCCNC(=N)N)C(=O)N[C@@H](Cc2c[nH]c3ccccc23)C(=O)O)NC(=O)[C@H](CCCNC(=N)N)NC1=O
